How the values were obtained:
in vitro [1] = details: human, MT4 cells
Description: Selectivity index, ratio of CC50 for cytotoxicity against human MT4 cells to EC50 for antiviral activity against wild type HIV-1 IIIB infected in human MT4 cells

[2] = target: Human immunodeficiency virus type 1 reverse transcriptase (Human immunodeficiency virus 1, UniProt Q72547)
Description: Inhibition of HIV-1 reverse transcriptase using oligo(dT)16 as primer measured after 40 mins by picogreen-dye based spectrofluorometric analysis

[3] = Cytotoxicity against human MT4 cells assessed as reduction in cell viability by MTT assay; format: toxicity, cell-based
[4] = system: Human immunodeficiency virus 1; assay: microbe, parasite or virus in culture; details: Human immunodeficiency virus 1, IIIB, MT4
Description: Antiviral activity against wild type HIV-1 IIIB infected in human MT4 cells assessed as protection against virus-induced cytopathic effect by MTT assay

in vitro [5] = details: human
in vitro [6] = details: human; remark: listed apart in the source
[7] = Metabolic stability in human liver assessed as intrinsic clearance in microsomes at 1 uM measured up to 45 mins in presence of NADPH by LC-MS/MS analysis; format: ADME; details: read-out: CLH
[8] = system: Human immunodeficiency virus 1; assay: Antiviral activity against HIV-1 IIIB harboring reverse transcriptase Y181C mutant infected in human MT4 cells by MTT assay; format: functional, organism-based; details: Human immunodeficiency virus 1, IIIB
[9] = system: Human immunodeficiency virus 1; assay: Antiviral activity against HIV-1 IIIB harboring reverse transcriptase […] mutant infected in human MT4 cells by MTT assay; format: functional, organism-based; details: Human immunodeficiency virus 1, IIIB
[10] = system: Human immunodeficiency virus 1; assay: microbe, parasite or virus in culture; details: Human immunodeficiency virus 1, IIIB, MT4; remark: listed apart in the source
Description: Antiviral activity against HIV-1 IIIB harboring reverse transcriptase Y188L mutant infected in human MT4 cells by MTT assay

[11] = system: Human immunodeficiency virus 1; assay: Antiviral activity against HIV-1 IIIB harboring reverse transcriptase K103N mutant infected in human MT4 cells by MTT assay; format: functional, organism-based; details: Human immunodeficiency virus 1, IIIB
[12] = system: Human immunodeficiency virus 1; assay: Antiviral activity against HIV-1 IIIB harboring reverse transcriptase E138K mutant infected in human MT4 cells by MTT assay; format: functional, organism-based; details: Human immunodeficiency virus 1, IIIB

| IC50 [2] | EC50 [4] | half-life at 0.75 h, 1 µM (in vitro [5]; microsomes) | CLint scaled at 0.75 h, 1 µM (in vitro [6]) | Compound | selectivity ratio (in vitro [1]) | CC50 [3] | microsomal CLint at 1 µM [7] | EC50 [8] | EC50 [9] | EC50 [10] | EC50 [11] | EC50 [12] | half-life at 0.75 h, 1 µM (in vitro [5]; liver microsomes) | CLint scaled at 0.75 h, 1 µM (in vitro [6]; liver) |
| --- | --- | --- | --- | --- | --- | --- | --- | --- | --- | --- | --- | --- | --- | --- |
| 39 nM | 6 nM | – | – | Cc1cc(-c2ccc(C#N)c(F)c2)ccc1Oc1cc(N)nc(Nc2ccc(C#N)cc2)n1 | 1090 | 6600 nM | – | – | – | – | – | – | – | – |
| – | – | 9.25 min | 4.49 mL/min/kg | O=C(O)Cc1ccccc1Nc1c(Cl)cccc1Cl [DICLOFENAC] | – | – | 150 µL/min/mg | – | – | – | – | – | – | – |
| 73 nM | 9.7 nM | – | – | COc1cccc(-c2cc(C)c(Oc3cc(N)nc(Nc4ccc(C#N)cc4)n3)c(C)c2)c1 | 1980 | 19300 nM | – | – | – | – | – | – | – | – |
| 122 nM | 42.8 nM | – | – | COc1ccccc1-c1cc(C)c(Oc2cc(N)nc(Nc3ccc(C#N)cc3)n2)c(C)c1 | 508 | 21800 nM | – | – | – | – | – | – | – | – |
| – | – | – | – | O=C1Nc2ccc(Cl)cc2[C@@](C#CC2CC2)(C(F)(F)F)O1 [EFAVIRENZ] | – | > 6340 nM | – | 7 nM | 30 nM | – | – | – | – | – |
| 46 nM | 9.6 nM | – | – | Cc1cc(-c2ccccc2F)cc(C)c1Oc1cc(N)nc(Nc2ccc(C#N)cc2)n1 | 3060 | 29300 nM | – | – | – | – | – | – | – | – |
| 102 nM | 34.2 nM | – | – | Cc1cc(-c2ccc(Cl)cc2)cc(C)c1Oc1cc(N)nc(Nc2ccc(C#N)cc2)n1 | 628 | 21500 nM | – | – | – | – | – | – | – | – |
| 54 nM | 7.7 nM | – | – | COc1ccc(-c2cc(C)c(Oc3cc(N)nc(Nc4ccc(C#N)cc4)n3)c(C)c2)cc1 | 1390 | 10700 nM | – | – | – | – | – | – | – | – |
| 45 nM | 11.5 nM | – | – | Cc1cc(-c2ccccc2F)ccc1Oc1cc(N)nc(Nc2ccc(C#N)cc2)n1 | 2560 | 29500 nM | – | – | – | – | – | – | – | – |
| 50 nM | 9.5 nM | – | – | Cc1cc(-c2ccc(F)cc2)ccc1Oc1cc(N)nc(Nc2ccc(C#N)cc2)n1 | 2120 | 20100 nM | – | – | – | – | – | – | – | – |
| 40 nM | 7.12 nM | – | – | Cc1cc(-c2ccccc2C#N)cc(C)c1Oc1cc(N)nc(Nc2ccc(C#N)cc2)n1 | 3570 | 25400 nM | – | – | – | – | – | – | – | – |
| 90 nM | 10.9 nM | – | – | Cc1cc(-c2ccc(C#N)c(C#N)c2)ccc1Oc1cc(N)nc(Nc2ccc(C#N)cc2)n1 | 7040 | 76700 nM | – | – | – | – | – | – | – | – |
| 100 nM | 28.4 nM | – | – | Cc1cc(-c2ccccc2Cl)cc(C)c1Oc1cc(N)nc(Nc2ccc(C#N)cc2)n1 | 882 | 25100 nM | – | – | – | – | – | – | – | – |
| 69 nM | 40.1 nM | – | – | Cc1ccc(-c2cc(C)c(Oc3cc(N)nc(Nc4ccc(C#N)cc4)n3)c(C)c2)cc1 | 249 | 10000 nM | – | – | – | – | – | – | – | – |
| 52 nM | 15.8 nM | – | – | Cc1cc(-c2cccc(F)c2)cc(C)c1Oc1cc(N)nc(Nc2ccc(C#N)cc2)n1 | 1570 | 24700 nM | – | – | – | – | – | – | – | – |
| 85 nM | 38 nM | – | – | Cc1cc(-c2cccc(Cl)c2)cc(C)c1Oc1cc(N)nc(Nc2ccc(C#N)cc2)n1 | 588 | 22300 nM | – | – | – | – | – | – | – | – |
| 121 nM | 35.2 nM | – | – | Cc1ccccc1-c1cc(C)c(Oc2cc(N)nc(Nc3ccc(C#N)cc3)n2)c(C)c1 | 726 | 25600 nM | – | – | – | – | – | – | – | – |
| 45 nM | 9.7 nM | – | – | Cc1cc(-c2ccccc2)cc(C)c1Oc1cc(N)nc(Nc2ccc(C#N)cc2)n1 | 2640 | 25600 nM | – | – | – | – | – | – | – | – |
| 61 nM | 13.6 nM | – | – | Cc1cc(-c2ccc(F)cc2)cc(C)c1Oc1cc(N)nc(Nc2ccc(C#N)cc2)n1 | 1700 | 23100 nM | – | – | – | – | – | – | – | – |
| 50 nM | 5.33 nM | – | – | Cc1cc(-c2ccc(C#N)c(F)c2)cc(C)c1Oc1cc(N)nc(Nc2ccc(C#N)cc2)n1 | 937 | 5000 nM | – | – | – | – | – | – | – | – |
| – | – | – | – | Cc1ccnc2c1NC(=O)c1cccnc1N2C1CC1 [NEVIRAPINE] | – | > 15000 nM | – | 11500 nM | 1360 nM | > 15000 nM | 5840 nM | – | – | – |
| 152 nM | 68.3 nM | – | – | Cc1cccc(-c2cc(C)c(Oc3cc(N)nc(Nc4ccc(C#N)cc4)n3)c(C)c2)c1 | 404 | 27600 nM | – | – | – | – | – | – | – | – |
| 50 nM | 9.84 nM | – | – | Cc1cc(-c2ccccc2C#N)ccc1Oc1cc(N)nc(Nc2ccc(C#N)cc2)n1 | 2900 | 28600 nM | – | – | – | – | – | – | – | – |
| 39 nM | 19 nM | – | – | Cc1cc(-c2ccccc2)ccc1Oc1cc(N)nc(Nc2ccc(C#N)cc2)n1 | 1050 | 20000 nM | – | – | – | – | – | – | – | – |
| 40 nM | 5.69 nM | – | – | Cc1cc(-c2ccc(C#N)c(C#N)c2)cc(C)c1Oc1cc(N)nc(Nc2ccc(C#N)cc2)n1 | 3090 | 17600 nM | – | – | – | – | – | – | – | – |
| 101 nM | 60.6 nM | – | – | Cc1cc(-c2cccc(F)c2)ccc1Oc1cc(N)nc(Nc2ccc(C#N)cc2)n1 | 187 | 11300 nM | – | – | – | – | – | – | – | – |

| Compound | IC50 [2] | EC50 [4] | half-life at 0.75 h, 1 µM (in vitro [5]; microsomes) | CLint scaled at 0.75 h, 1 µM (in vitro [6]) | selectivity ratio (in vitro [1]) | CC50 [3] | microsomal CLint at 1 µM [7] | EC50 [8] | EC50 [9] | EC50 [10] | EC50 [11] | EC50 [12] | half-life at 0.75 h, 1 µM (in vitro [5]; liver microsomes) | CLint scaled at 0.75 h, 1 µM (in vitro [6]; liver) |
| --- | --- | --- | --- | --- | --- | --- | --- | --- | --- | --- | --- | --- | --- | --- |
| COc1cc2cc(C#N)ccc2c(OC)c1Oc1cc(N)nc(Nc2ccc(C#N)cc2)n1 | – | 5 nM | – | – | 3500 | 19000 nM | – | – | 38 nM | – | – | – | – | – |
| Cc1cc(-c2cccc(C#N)c2)ccc1Oc1cc(N)nc(Nc2ccc(C#N)cc2)n1 | 41 nM | 5.5 nM | – | – | 4940 | 27400 nM | – | 450 nM | 287 nM | 6550 nM | 105 nM | 36 nM | – | – |
| Cc1cc(-c2cccc(C#N)c2)cc(C)c1Oc1cc(N)nc(Nc2ccc(C#N)cc2)n1 | 42 nM | 7 nM | – | – | 2890 | 20200 nM | – | 73 nM | 88 nM | 878 nM | 8 nM | 46 nM | – | – |
| Cc1cc(C#N)cc(C)c1Oc1nc(Nc2ccc(C#N)cc2)nc(N)c1Br [ETRAVIRINE] | – | 2.9 nM | – | – | – | > 4600 nM | – | – | 6 nM | 18 nM | 2 nM | 6 nM | – | – |
| Cc1cc(Oc2cc(N)nc(Nc3ccc(C#N)cc3)n2)ccc1-c1ccc(C#N)cc1 | 26 nM | 2.3 nM | – | – | 15100 | 34300 nM | 36 µL/min/mg | 33 nM | 71 nM | 1420 nM | 10 nM | 12 nM | 38.5 min | 1.08 mL/min/kg |
| COc1cc(Oc2cc(N)nc(Nc3ccc(C#N)cc3)n2)ccc1-c1ccc(C#N)cc1 | 30 nM | 2.3 nM | – | – | 5590 | 12900 nM | – | 28 nM | 36 nM | 1360 nM | 12 nM | 13 nM | – | – |
| Cc1cc(-c2ccc(C#N)cc2)cc(C)c1Oc1cc(N)nc(Nc2ccc(C#N)cc2)n1 | 37 nM | 4.7 nM | – | – | 3870 | 18100 nM | – | 16 nM | 8 nM | 82 nM | 4 nM | 12 nM | – | – |
| Cc1cc(-c2ccc(C#N)cc2)ccc1Oc1cc(N)nc(Nc2ccc(C#N)cc2)n1 | 29 nM | 2 nM | – | – | 5250 | 10400 nM | – | 32 nM | 38 nM | 1110 nM | 3 nM | 9 nM | – | – |
